Source: patent US8192962B2, “Processes for detecting toxic substances” (Daikin Industries, Ltd., priority 2001, dated 2012)

Tested on: Transport facilitation protein genes
Assay: DNA chip mRNA expression in yeast, transport facilitation protein genes (Table 5)
Type: cell-based, Saccharomyces cerevisiae S288C
Summary of the method: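 In this screen, yeast in logarithmic growth are challenged for two hours with a toxic substance at a non-lethal inhibitory concentration. Their mRNA, converted to Cy3- or Cy5-labeled cDNA, hybridizes at 65° C. to a chip spanning every yeast gene, and expression is expressed as a ratio to untreated cells.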

[Cl][Cd][Cl] [(2), CdCl2]
The level of expressed mRNA in the presence of chemical substance/The level of expressed mRNA in the absence of chemical substance (yeast gene YGR224W): 1.2 | The level of expressed mRNA in the presence of chemical substance/The level of expressed mRNA in the absence of chemical substance (yeast gene YGR260W): 0.7 | The level of expressed mRNA in the presence of chemical substance/The level of expressed mRNA in the absence of chemical substance (yeast gene YGR281W): 1.0 | The level of expressed mRNA in the presence of chemical substance/The level of expressed mRNA in the absence of chemical substance (yeast gene YHL035C): 1.3 | The level of expressed mRNA in the presence of chemical substance/The level of expressed mRNA in the absence of chemical substance (yeast gene YHL040C): 4.9 | The level of expressed mRNA in the presence of chemical substance/The level of expressed mRNA in the absence of chemical substance (yeast gene YHL047C): 4.4 | The level of expressed mRNA in the presence of chemical substance/The level of expressed mRNA in the absence of chemical substance (yeast gene YHR026W): 1.0 | The level of expressed mRNA in the presence of chemical substance/The level of expressed mRNA in the absence of chemical substance (yeast gene YHR092C): 1.0 | The level of expressed mRNA in the presence of chemical substance/The level of expressed mRNA in the absence of chemical substance (yeast gene YHR094C): 1.2 | The level of expressed mRNA in the presence of chemical substance/The level of expressed mRNA in the absence of chemical substance (yeast gene YHR175W): 2.0 | The level of expressed mRNA in the presence of chemical substance/The level of expressed mRNA in the absence of chemical substance (yeast gene YIL006W): 1.1 | The level of expressed mRNA in the presence of chemical substance/The level of expressed mRNA in the absence of chemical substance (yeast gene YIL022W): 0.7 | The level of expressed mRNA in the presence of chemical substance/The level of expressed mRNA in the absence of chemical substance (yeast gene YIL056W): 0.9 | The level of expressed mRNA in the presence of chemical substance/The level of expressed mRNA in the absence of chemical substance (yeast gene YIL088C): 2.1 | The level of expressed mRNA in the presence of chemical substance/The level of expressed mRNA in the absence of chemical substance (yeast gene YJL034W): 1.7 | The level of expressed mRNA in the presence of chemical substance/The level of expressed mRNA in the absence of chemical substance (yeast gene YJL212C): 3.2 | The level of expressed mRNA in the presence of chemical substance/The level of expressed mRNA in the absence of chemical substance (yeast gene YJL219W): 2.5 | The level of expressed mRNA in the presence of chemical substance/The level of expressed mRNA in the absence of chemical substance (yeast gene YJR077C): 1.1 | The level of expressed mRNA in the presence of chemical substance/The level of expressed mRNA in the absence of chemical substance (yeast gene YJR106W): 3.8 | The level of expressed mRNA in the presence of chemical substance/The level of expressed mRNA in the absence of chemical substance (yeast gene YJR121W): 1.1 | The level of expressed mRNA in the presence of chemical substance/The level of expressed mRNA in the absence of chemical substance (yeast gene YKL016C): 1.3 | The level of expressed mRNA in the presence of chemical substance/The level of expressed mRNA in the absence of chemical substance (yeast gene YKL146W): 1.3 | The level of expressed mRNA in the presence of chemical substance/The level of expressed mRNA in the absence of chemical substance (yeast gene YKR039W): 3.5 | The level of expressed mRNA in the presence of chemical substance/The level of expressed mRNA in the absence of chemical substance (yeast gene YKR067W): 2.6 | The level of expressed mRNA in the presence of chemical substance/The level of expressed mRNA in the absence of chemical substance (yeast gene YLL028W): 0.9 | The level of expressed mRNA in the presence of chemical substance/The level of expressed mRNA in the absence of chemical substance (yeast gene YLR081W): 0.8 | The level of expressed mRNA in the presence of chemical substance/The level of expressed mRNA in the absence of chemical substance (yeast gene YLR295C): 1.1 | The level of expressed mRNA in the presence of chemical substance/The level of expressed mRNA in the absence of chemical substance (yeast gene YLR348C): 4.5 | The level of expressed mRNA in the presence of chemical substance/The level of expressed mRNA in the absence of chemical substance (yeast gene YLR378C): 0.9 | The level of expressed mRNA in the presence of chemical substance/The level of expressed mRNA in the absence of chemical substance (yeast gene YMR011W): 1.0 | The level of expressed mRNA in the presence of chemical substance/The level of expressed mRNA in the absence of chemical substance (yeast gene YMR162C): 1.1 | The level of expressed mRNA in the presence of chemical substance/The level of expressed mRNA in the absence of chemical substance (yeast gene YMR203W): 0.7 | The level of expressed mRNA in the presence of chemical substance/The level of expressed mRNA in the absence of chemical substance (yeast gene YNL055C): 1.8 | The level of expressed mRNA in the presence of chemical substance/The level of expressed mRNA in the absence of chemical substance (yeast gene YNR072W): 1.5 | The level of expressed mRNA in the presence of chemical substance/The level of expressed mRNA in the absence of chemical substance (yeast gene YOL119C): 4.8 | The level of expressed mRNA in the presence of chemical substance/The level of expressed mRNA in the absence of chemical substance (yeast gene YOL156W): 0.7 | The level of expressed mRNA in the presence of chemical substance/The level of expressed mRNA in the absence of chemical substance (yeast gene YOL163W): 3.2 | The level of expressed mRNA in the presence of chemical substance/The level of expressed mRNA in the absence of chemical substance (yeast gene YOR035C): 1.2 | The level of expressed mRNA in the presence of chemical substance/The level of expressed mRNA in the absence of chemical substance (yeast gene YOR130C): 1.7 | The level of expressed mRNA in the presence of chemical substance/The level of expressed mRNA in the absence of chemical substance (yeast gene YOR153W): 0.9 | The level of expressed mRNA in the presence of chemical substance/The level of expressed mRNA in the absence of chemical substance (yeast gene YOR273C): 1.0 | The level of expressed mRNA in the presence of chemical substance/The level of expressed mRNA in the absence of chemical substance (yeast gene YOR316C): 2.5 | The level of expressed mRNA in the presence of chemical substance/The level of expressed mRNA in the absence of chemical substance (yeast gene YOR328W): 1.0 | The level of expressed mRNA in the presence of chemical substance/The level of expressed mRNA in the absence of chemical substance (yeast gene YOR332W): 1.0 | The level of expressed mRNA in the presence of chemical substance/The level of expressed mRNA in the absence of chemical substance (yeast gene YOR348C): 0.7 | The level of expressed mRNA in the presence of chemical substance/The level of expressed mRNA in the absence of chemical substance (yeast gene YPL036W): 0.8 | The level of expressed mRNA in the presence of chemical substance/The level of expressed mRNA in the absence of chemical substance (yeast gene YPL134C): 1.0 | The level of expressed mRNA in the presence of chemical substance/The level of expressed mRNA in the absence of chemical substance (yeast gene YPL271W): 3.2 | The level of expressed mRNA in the presence of chemical substance/The level of expressed mRNA in the absence of chemical substance (yeast gene YPR192W): 1.1 | The level of expressed mRNA in the presence of chemical substance/The level of expressed mRNA in the absence of chemical substance (yeast gene YPR194C): 1.4
